According to the NIST ThermoML archive (doi:10.1016/j.fluid.2018.06.013):
Numbers after ± are expanded uncertainties.

Assay: activity coefficient (dimensionless); of the first substance listed, at infinite dilution; xn = mol fraction of the nth substance listed
Conditions: 100 kPa, Liquid, Chromatography, x1 = 0

SMILES	activity coefficient (313.15 K)	activity coefficient (323.15 K)	activity coefficient (343.15 K)	activity coefficient (363.15 K)	activity coefficient (373.15 K)
C1=CCCCC1 [cyclohexene] + CCCC[N+]1(C)CCCC1.N#CN=C=[N-]	9.06 ± 0.95	8.78 ± 0.92	8.65 ± 0.91	8.48 ± 0.89	8.26 ± 0.87
CC(C)O [propan-2-ol] + CCCC[N+]1(C)CCCC1.N#CN=C=[N-]	0.744 ± 0.077	0.719 ± 0.075	0.714 ± 0.074	0.711 ± 0.074	0.696 ± 0.073
COC(C)(C)C [2-methoxy-2-methylpropane] + CCCC[N+]1(C)CCCC1.N#CN=C=[N-]	6.25 ± 0.66	6.32 ± 0.66	6.55 ± 0.69	6.92 ± 0.73	7.15 ± 0.75
CCCOCCC [dipropyl ether] + CCCC[N+]1(C)CCCC1.N#CN=C=[N-]	17.9 ± 1.9	17 ± 1.8	16.8 ± 1.8	16.6 ± 1.7	16.6 ± 1.7
CCC[N+](=O)[O-] [1-nitropropane] + CCCC[N+]1(C)CCCC1.N#CN=C=[N-]	0.721 ± 0.075	0.74 ± 0.077	0.789 ± 0.081	0.827 ± 0.085	0.838 ± 0.086
C=Cc1ccccc1 [styrene] + CCCC[N+]1(C)CCCC1.N#CN=C=[N-]	1.49 ± 0.15	1.54 ± 0.16	1.7 ± 0.18	1.8 ± 0.19	1.9 ± 0.2
Cc1ccc(C)cc1 [1,4-dimethylbenzene] + CCCC[N+]1(C)CCCC1.N#CN=C=[N-]	3.24 ± 0.34	3.24 ± 0.34	3.47 ± 0.36	3.63 ± 0.38	3.73 ± 0.39
CCCCO [butan-1-ol] + CCCC[N+]1(C)CCCC1.N#CN=C=[N-]	0.897 ± 0.092	0.873 ± 0.089	0.844 ± 0.087	0.836 ± 0.086	0.814 ± 0.084
C#CCCCC [1-hexyne] + CCCC[N+]1(C)CCCC1.N#CN=C=[N-]	3.81 ± 0.4	3.98 ± 0.42	4.32 ± 0.45	4.61 ± 0.48	4.77 ± 0.5
C=CCCCCCC [oct-1-ene] + CCCC[N+]1(C)CCCC1.N#CN=C=[N-]	47.8 ± 5	46.3 ± 4.9	42.8 ± 4.5	40.3 ± 4.2	39 ± 4.1
CCCO [propan-1-ol] + CCCC[N+]1(C)CCCC1.N#CN=C=[N-]	0.649 ± 0.068	0.645 ± 0.068	0.648 ± 0.068	0.665 ± 0.07	0.638 ± 0.067
CCCCCCCC [octane] + CCCC[N+]1(C)CCCC1.N#CN=C=[N-]	119 ± 13	111 ± 12	96 ± 10	86 ± 9.1	81 ± 8.5
c1ccccc1 [benzene] + CCCC[N+]1(C)CCCC1.N#CN=C=[N-]	1.38 ± 0.14	1.4 ± 0.14	1.49 ± 0.15	1.6 ± 0.2	1.62 ± 0.17
CCCC(C)=O [pentan-2-one] + CCCC[N+]1(C)CCCC1.N#CN=C=[N-]	1.73 ± 0.18	1.79 ± 0.19	1.89 ± 0.2	1.96 ± 0.21	2.02 ± 0.21
c1ccsc1 [thiophene] + CCCC[N+]1(C)CCCC1.N#CN=C=[N-]	0.807 ± 0.083	0.845 ± 0.087	0.929 ± 0.095	1.01 ± 0.1	1.05 ± 0.11
CCC(C)O (stereo not given) [butan-2-ol] + CCCC[N+]1(C)CCCC1.N#CN=C=[N-]	0.875 ± 0.09	0.888 ± 0.091	0.859 ± 0.088	0.869 ± 0.089	0.881 ± 0.09
CCc1ccccc1 [ethylbenzene] + CCCC[N+]1(C)CCCC1.N#CN=C=[N-]	3.32 ± 0.35	3.43 ± 0.36	3.52 ± 0.37	3.7 ± 0.4	3.77 ± 0.4
CC(C)=O [acetone] + CCCC[N+]1(C)CCCC1.N#CN=C=[N-]	0.907 ± 0.093	0.91 ± 0.09	0.978 ± 0.099	1.04 ± 0.11	1.06 ± 0.11
CCC(=O)OC [methyl propanoate] + CCCC[N+]1(C)CCCC1.N#CN=C=[N-]	2.07 ± 0.22	2.09 ± 0.22	2.22 ± 0.23	2.33 ± 0.24	2.4 ± 0.25
C=CCCCCCCCC [1-decene] + CCCC[N+]1(C)CCCC1.N#CN=C=[N-]	104 ± 11	98.2 ± 10	89.4 ± 9.4	83.7 ± 8.8	78.7 ± 8.3
